Data published in publication PMC9518264, “Design and synthesis of novel quinazolinone-based derivatives as EGFR inhibitors with antitumor activity” (Journal of Enzyme Inhibition and Medicinal Chemistry, 2022).
Like-named read-outs stand apart in the source and are kept apart here.

Experiments:
[1] = tested on: RXF 393; assay: cells; type: cell-based; conditions: Homo sapiens
[2] = tested on: SN12C; assay: cells; type: cell-based; conditions: Homo sapiens, read-out: growth inhibition % (GI%)
[3] = tested on: NCI-H460; assay: cells; type: cell-based; conditions: Homo sapiens
[4] = tested on: CAKI-1; assay: cells; type: cell-based; conditions: Homo sapiens
[5] = tested on: PC-3; assay: cells; type: cell-based; conditions: Homo sapiens
[6] = tested on: M14; assay: cells; type: cell-based; conditions: Homo sapiens
[7] = tested on: HL-60(TB); assay: cells; type: cell-based; conditions: Homo sapiens
[8] = tested on: UO-31; assay: cells; type: cell-based; conditions: Homo sapiens
[9] = tested on: UACC-62; assay: cells; type: cell-based; conditions: Homo sapiens
[10] = tested on: OVCAR-8; assay: cells; type: cell-based; conditions: Homo sapiens
[11] = tested on: HT29; assay: cells; type: cell-based; conditions: Homo sapiens
[12] = tested on: MDA-MB-468; assay: NCI 60 cell line antiproliferative screening (SRB), Breast cancer; conditions: Homo sapiens, MDA-MB-468, read-out: growth inhibition % (GI%)
[13] = tested on: MDA-MB-435; assay: cells; type: cell-based; conditions: Homo sapiens
[14] = tested on: SF-295; assay: cells; type: cell-based; conditions: Homo sapiens
[15] = target: EGFR (Homo sapiens, UniProt P00533); assay: In vitro EGFR kinase inhibitory assay (Kinase-Glo Max luminescence kit); type: biochemical
Chain of EGFR (P00533 669-1210): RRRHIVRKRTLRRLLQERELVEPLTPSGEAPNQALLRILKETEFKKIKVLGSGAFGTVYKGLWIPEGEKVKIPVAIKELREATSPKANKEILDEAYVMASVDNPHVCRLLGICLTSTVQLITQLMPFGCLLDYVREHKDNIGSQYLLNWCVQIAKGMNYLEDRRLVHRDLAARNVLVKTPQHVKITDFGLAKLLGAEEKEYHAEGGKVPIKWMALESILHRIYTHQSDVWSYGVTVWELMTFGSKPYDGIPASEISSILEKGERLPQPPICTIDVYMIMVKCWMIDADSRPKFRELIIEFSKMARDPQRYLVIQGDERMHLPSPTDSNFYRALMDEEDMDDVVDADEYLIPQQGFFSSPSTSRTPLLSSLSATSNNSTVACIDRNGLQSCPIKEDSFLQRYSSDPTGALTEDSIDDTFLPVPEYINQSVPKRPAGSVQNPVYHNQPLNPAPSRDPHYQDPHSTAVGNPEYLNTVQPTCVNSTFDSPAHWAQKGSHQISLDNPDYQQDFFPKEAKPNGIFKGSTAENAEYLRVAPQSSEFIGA

[16] = RXF 393, read-out: growth inhibition % (GI%)
[17] = NCI-H460, read-out: growth inhibition % (GI%)
[18] = CAKI-1, read-out: growth inhibition % (GI%)
[19] = PC-3, read-out: growth inhibition % (GI%)
[20] = M14, read-out: growth inhibition % (GI%)
[21] = HL-60, read-out: growth inhibition % (GI%)
[22] = UO-31, read-out: growth inhibition % (GI%)
[23] = UACC-62, read-out: growth inhibition % (GI%)
[24] = OVCAR-8, read-out: growth inhibition % (GI%)
[25] = HT-29, read-out: growth inhibition % (GI%)
[26] = MDA-MB-435, read-out: growth inhibition % (GI%)
[27] = SF-295, read-out: growth inhibition % (GI%)
[28] = NCI-H460, 10 μM, read-out: growth inhibition % (GI%)
[29] = PC-3, 10 μM, read-out: growth inhibition % (GI%)
[30] = HL-60(TB), 10 μM, read-out: growth inhibition % (GI%)
[31] = UO-31, 10 μM, read-out: growth inhibition % (GI%)
[32] = UACC-62, 10 μM, read-out: growth inhibition % (GI%)
[33] = OVCAR-8, 10 μM, read-out: growth inhibition % (GI%)
[34] = HT-29, HT29, 10 μM, read-out: growth inhibition % (GI%)
[35] = MDA-MB-435, 10 μM, read-out: growth inhibition % (GI%)
[36] = SF-295, 10 μM, read-out: growth inhibition % (GI%)

| SMILES | inhibition at 10 µM [2] [%] | inhibition at 10 µM [3, 17] [%] | inhibition at 10 µM [5, 19] [%] | inhibition at 10 µM [7, 21] [%] | inhibition at 10 µM [8, 22] [%] | inhibition at 10 µM [9, 23] [%] | inhibition at 10 µM [10, 24] [%] | inhibition at 10 µM [11, 25] [%] | inhibition at 10 µM [12] [%] | inhibition at 10 µM [13, 26] [%] | inhibition at 10 µM ([2]; 10 μM) [%] | inhibition at 10 µM [3, 28] [%] | inhibition at 10 µM [5, 29] [%] | inhibition at 10 µM [7, 30] [%] | inhibition at 10 µM [8, 31] [%] | inhibition at 10 µM [9, 32] [%] | inhibition at 10 µM [10, 33] [%] | inhibition at 10 µM [11, 34] [%] | inhibition at 10 µM [13, 35] [%] | inhibition at 10 µM [14, 36] [%] | also measured |
| --- | --- | --- | --- | --- | --- | --- | --- | --- | --- | --- | --- | --- | --- | --- | --- | --- | --- | --- | --- | --- | --- |
| O=C(CSc1nc2ccccc2c(=O)n1-c1ccccc1)NN=Cc1ccc(Oc2ccc(Cl)cc2)cc1 [6a, N'-(4–(4-chlorophenoxy)benzylidene)-2-((4-oxo-3-phenyl-3,4-dihydroquinazolin-2-yl)thio)acetohydrazide] | 73.1 | 67.9 | 41.3 | < 15 | 18.8 | 33.4 | 40.8 | 40.9 | 28.4 | 15.4 |  |  |  |  |  |  |  |  |  |  | inhibition at 10 µM [1, 16]: 58%; inhibition at 10 µM [4, 18]: 40.8%; inhibition at 10 µM [6, 20]: 51.2%; inhibition at 10 µM [14, 27]: 16.2%; IC50 [15]: 202 ± 12 nM |
| O=C(CSc1nc2ccccc2c(=O)n1-c1ccccc1)NN=Cc1ccc(Oc2ccc(Br)cc2)cc1 [6b, N'-(4–(4-bromophenoxy)benzylidene)-2-((4-oxo-3-phenyl-3,4-dihydroquinazolin-2-yl)thio) acetohydrazide] | 59.3 | 72 | 28.2 | < 15 | < 15 | 31.2 | 36.7 | 61.8 | 34.9 | 19.2 |  |  |  |  |  |  |  |  |  |  | inhibition at 10 µM [1, 16]: 37.8%; inhibition at 10 µM [4, 18]: 29.2%; inhibition at 10 µM [6, 20]: 43.7%; inhibition at 10 µM [14, 27]: 16.3%; IC50 [15]: 487 ± 30 nM |
| COc1ccc(Oc2ccc(C=NNC(=O)CSc3nc4ccccc4c(=O)n3-c3ccccc3)cc2)cc1 [6c, N'-(4–(4-methoxyphenoxy)benzylidene)-2-((4-oxo-3-phenyl-3,4-dihydroquinazolin-2-yl)thio)acetohydrazide] |  |  |  |  |  |  |  |  | < 15 |  | < 15 | < 15 | < 15 | < 15 | < 15 | < 15 | < 15 | < 15 | < 15 | < 15 |  |
| O=C(CSc1nc2ccccc2c(=O)n1-c1ccc(Cl)cc1)NN=Cc1ccc(Oc2ccc(Br)cc2)cc1 [6e, N'-(4–(4-bromophenoxy)benzylidene)-2-((3–(4-chlorophenyl)-4-oxo-3,4-dihydroquinazolin-2-yl)thio)acetohydrazide] |  |  |  |  |  |  |  |  | < 15 |  | < 15 | < 15 | < 15 | < 15 | 20.8 | < 15 | < 15 | < 15 | < 15 | < 15 |  |
| COc1ccc(Oc2ccc(C=NNC(=O)CSc3nc4ccccc4c(=O)n3-c3ccc(Cl)cc3)cc2)cc1 [6f, 2-((3–(4-chlorophenyl)-4-oxo-3,4-dihydroquinazolin-2-yl)thio)-N'-(4–(4-methoxyphenoxy)benzylidene)acetohydrazide] | 47.3 | 88.8 | 36.3 | < 15 | 52.3 | 38.1 | < 15 | 83.9 | 33.2 | < 15 |  |  |  |  |  |  |  |  |  |  | inhibition at 10 µM [14, 27]: 32.3%; IC50 [15]: 133 ± 8 nM |
| O=C(CSc1nc2ccccc2c(=O)n1-c1ccccc1)NN=Cc1ccc(N2CCCCC2)cc1 [6g, 2-((4-oxo-3-phenyl-3,4-dihydroquinazolin-2-yl)thio)-N'-(4-(piperidin-1-yl)benzylidene) acetohydrazide] |  |  |  |  |  |  |  |  | < 15 |  | < 15 | < 15 | 18.5 | < 15 | 23.3 | < 15 | < 15 | < 15 | < 15 | < 15 | inhibition at 10 µM ([1]; RXF 393, 10 μM, read-out: growth inhibition % (GI%)): < 15%; inhibition at 10 µM ([4]; CAKI-1, 10 μM, read-out: growth inhibition % (GI%)): 22%; inhibition at 10 µM ([6]; M14, 10 μM, read-out: growth inhibition % (GI%)): < 15%; melting point: 164 to 166 °C |
| O=C(CSc1nc2ccccc2c(=O)n1-c1ccccc1)NN=Cc1ccc(N2CCOCC2)cc1 [6h, N'-(4-morpholinobenzylidene)-2-((4-oxo-3-phenyl-3,4-dihydroquinazolin-2-yl)thio)acetohydrazide] |  |  |  |  |  |  |  |  | < 15 |  | < 15 | < 15 | < 15 | < 15 | < 15 | < 15 | < 15 | < 15 | < 15 | < 15 |  |
| CN1CCN(c2ccc(C=NNC(=O)CSc3nc4ccccc4c(=O)n3-c3ccccc3)cc2)CC1 [6i, N'-(4–(4-methylpiperazin-1-yl)benzylidene)-2-((4-oxo-3-phenyl-3,4-dihydroquinazolin-2-yl)thio) acetohydrazide] |  |  |  |  |  |  |  |  | < 15 |  | < 15 | < 15 | < 15 | < 15 | < 15 | < 15 | < 15 | < 15 | < 15 | < 15 |  |
| O=C(CSc1nc2ccccc2c(=O)n1-c1ccc(Cl)cc1)NN=Cc1ccc(N2CCCCC2)cc1 [6j, 2-((3–(4-chlorophenyl)-4-oxo-3,4-dihydroquinazolin-2-yl)thio)-N'-(4-(piperidin-1-yl)benzylidene) acetohydrazide] | 37.6 | 90.3 | 21.4 | < 15 | 47 | 26.5 | 34.7 | 39.1 | 20.5 | < 15 |  |  |  |  |  |  |  |  |  |  | inhibition at 10 µM [14, 27]: 23.6%; IC50 [15]: 478 ± 29 nM |
| O=C(CSc1nc2ccccc2c(=O)n1-c1ccc(Cl)cc1)NN=Cc1ccc(N2CCOCC2)cc1 [6k, 2-((3–(4-chlorophenyl)-4-oxo-3,4-dihydroquinazolin-2-yl)thio)-N'-(4-morpholinobenzylidene) acetohydrazide] |  |  |  |  |  |  |  |  | < 15 |  | < 15 | < 15 | < 15 | < 15 | < 15 | < 15 | < 15 | < 15 | < 15 | < 15 |  |
| CN1CCN(c2ccc(C=NNC(=O)CSc3nc4ccccc4c(=O)n3-c3ccc(Cl)cc3)cc2)CC1 [6l, 2-((3–(4-chlorophenyl)-4-oxo-3,4-dihydroquinazolin-2-yl)thio)-N'-(4–(4-methylpiperazin-1-yl)benzylidene)acetohydrazide] |  |  |  |  |  |  |  |  | < 15 |  | < 15 | < 15 | < 15 | < 15 | < 15 | < 15 | < 15 | < 15 | < 15 | < 15 |  |
